According to patent publication US11098266B2, “Organic compounds” (Givaudan SA, priority 2017, dated 2021):

Key:
[1] = GC-odor threshold values (gas chromatograph with sniff port, panel of trained evaluators); details: for odour threshold value geometric mean: absolute amount delivered at the sniff port, 5 panelists, identical conditions
Description: As used herein, “odor threshold value” means the lowest concentration of a volatile organic compound in air which can be detected by smell. Generally speaking, it can be said that a compound with a low odor threshold value is more powerful than a compound with a high odor threshold value and thus allows the use of very low concentration in a fragrance composition to achieve an olfactory effect.
According to standard procedures known to the person skilled in the art, threshold values for volatile perfumery compounds are determined on a gas chromatograph equipped with a sniff port by a panel of trained evaluators. The lowest concentration smelled by each panelist is recorded as the individual threshold value expressed in ng (absolute amount of compound delivered at the sniff port).
Under identical conditions the odour threshold value for the individual compounds was measured.

yellow mealworm = details: J. Agr. Food Chem. 20(1), 1972, 65-69; cited from earlier work
[2] = ratio of GC-odour threshold values

Structure (SMILES) | odour threshold value geometric mean [1] [ng] | odour threshold value, times lower compared to Citronellyl Acetate [1, 2] [times] | odour threshold value, times lower compared to Ethyl Citronellyl Carbonate [1, 2] [times] | juvenile hormone activity (yellow mealworm)
CC(C)=CCCC(C)CCO (stereo not drawn) [Citronellol, 3,7-dimethyloct-6-en-1-ol] | 5.2 |  |  | 
CC(=O)OCCC(C)CCC=C(C)C (stereo not drawn) [Citronellyl Acetate, 3,7-dimethyloct-6-en-1-yl acetate] | 241 |  |  | 
COC(=O)OCCC(C)CCC=C(C)C (racemic) [Example 1, 3,7-dimethyloct-6-en-1-yl methyl carbonate] | 16 | 15 | 10 | juvenile hormone activity
CC(C)=CCCC(C)CCOC(=O)Oc1ccccc1 (stereo not drawn) [3,7-Dimethyloct-6-en-1-yl phenyl carbonate] |  |  |  | juvenile hormone activity
CCOC(=O)OCCC(C)CCC=C(C)C (stereo not drawn) [Ethyl Citronellyl Carbonate, 3,7-dimethyloct-6-en-1-yl ethyl carbonate] | 158 |  |  | juvenile hormone activity
